Laboratory results as given in ChEMBL document CHEMBL1158620, “Synthesis and evaluation of novel alpha-amino cyclic boronates as inhibitors of HCV NS3 protease” (Bioorg Med Chem Lett, 2010).

Legend:
[1] = test system: Hepatitis C virus; assay: Antiviral activity against HCV 1a by cell based replicon assay; format: functional, organism-based, Hepacivirus hominis; conditions: subtype 1a
[2] = test system: Hepatitis C virus; assay: Inhibition of HCV 1a NS3/4A protease by FRET assay; format: functional, Hepatitis C virus subtype 1a; conditions: for IC50: Hepatitis C virus
[3] = test system: Hepatitis C virus; assay: Antiviral activity against HCV 1b by cell based replicon assay; format: functional, organism-based, Hepacivirus hominis; conditions: genotype 1b

Row | SMILES | EC50 [1] [nM] | IC50 [2] [nM] | EC50 [3] [nM] | Ki [2] [nM]
1 | CC(C)(C)[C@@H](NC(=O)OC1CCCC1)C(=O)N1C[C@H](Oc2nccc3ccccc23)C[C@H]1C(=O)N[C@@H]1B(O)OC[C@@H]1C1CC1 | > 1000 | 1930 | > 1000 | –
2 | CC(C)(C)[C@H](NC(=O)OC1CCCC1)C(=O)N1C[C@H](OC(=O)N2Cc3cccc(F)c3C2)C[C@H]1C(=O)N[C@H]1CCOB1O | > 1000 | 23 | > 1000 | –
3 | CC(C)(C)[C@H](NC(=O)OC1CCCC1)C(=O)N1C[C@H](OC(=O)N2Cc3cccc(F)c3C2)C[C@H]1C(=O)N[C@@H]1CCOB1O | > 1000 | 5310 | > 1000 | –
4 | CC(C)(C)[C@H](NC(=O)OC1CCCC1)C(=O)N1C[C@H](OC(=O)N2Cc3cccc(F)c3C2)C[C@H]1C(=O)NC1CCCOB1O (stereo not given in full) | > 1000 | 320 | > 1000 | –
5 | CC(C)(C)[C@H](NC(=O)OC1CCCC1)C(=O)N1C[C@H](OC(=O)N2Cc3cccc(F)c3C2)C[C@H]1C(=O)NC1CCCCOB1O (stereo not given in full) | > 1000 | 24 | > 1000 | –
6 | CC[C@H]1COB(O)[C@H]1NC(=O)[C@@H]1C[C@@H](OC(=O)N2Cc3cccc(F)c3C2)CN1C(=O)[C@@H](NC(=O)OC1CCCC1)C(C)(C)C | > 1000 | 330 | > 1000 | –
7 | CC(C)(C)[C@H](NC(=O)OC1CCCC1)C(=O)N1C[C@H](OC(=O)N2Cc3cccc(F)c3C2)C[C@H]1C(=O)N[C@@H]1B(O)OC[C@@H]1C1CC1 | > 1000 | 200 | > 1000 | –
8 | C[C@H]1C[C@H](NC(=O)[C@@H]2C[C@@H](OC(=O)N3Cc4cccc(F)c4C3)CN2C(=O)[C@@H](NC(=O)OC2CCCC2)C(C)(C)C)B(O)O1 | > 1000 | 340 | > 1000 | –
9 | C[C@H]1[C@H](C)OB(O)[C@H]1NC(=O)[C@@H]1C[C@@H](OC(=O)N2Cc3cccc(F)c3C2)CN1C(=O)[C@@H](NC(=O)OC1CCCC1)C(C)(C)C | > 1000 | 4470 | > 1000 | –
10 | CC(C)(C)[C@H](NC(=O)OC1CCCC1)C(=O)N1C[C@H](OC(=O)N2Cc3cccc(F)c3C2)C[C@H]1C(=O)N[C@H]1COB(O)C1 | > 1000 | 8500 | > 1000 | –
11 | CC(C)(C)[C@@H](NC(=O)OC1CCCC1)C(=O)N1C[C@H](Oc2nccc3ccccc23)C[C@H]1C(=O)N[C@H]1CCOB1O | > 1000 | 120 | > 1000 | –
12 | CC(C)(C)[C@@H](NC(=O)OC1CCCC1)C(=O)N1C[C@H](Oc2nccc3ccccc23)C[C@H]1C(=O)N[C@@H]1CCOB1O | > 1000 | 2750 | > 1000 | –
13 | CC(C)(C)[C@@H](NC(=O)OC1CCCC1)C(=O)N1C[C@H](Oc2nccc3ccccc23)C[C@H]1C(=O)NC1CCCOB1O (stereo not given in full) | > 1000 | 730 | > 1000 | –
14 | CC(C)(C)[C@@H](NC(=O)OC1CCCC1)C(=O)N1C[C@H](Oc2nccc3ccccc23)C[C@H]1C(=O)NC1CCCCOB1O (stereo not given in full) | > 1000 | 170 | > 1000 | –
15 | CC(C)(C)[C@H](NC(=O)[C@@H](NC(=O)c1cnccn1)C1CCCCC1)C(=O)N1C[C@@H]2CCC[C@@H]2[C@H]1C(=O)N[C@H]1CCOB1O | > 1000 | 120 | > 1000 | –
16 | CC(C)(C)NC(=O)N[C@H](C(=O)N1C[C@H]2[C@@H]([C@H]1C(=O)N[C@H]1CCOB1O)C2(C)C)C(C)(C)C | > 1000 | 340 | > 1000 | –
17 | CCC[C@H](NC(=O)[C@@H]1[C@H]2CCC[C@H]2CN1C(=O)[C@@H](NC(=O)[C@@H](NC(=O)c1cnccn1)C1CCCCC1)C(C)(C)C)C(=O)C(=O)NC1CC1 | – | 100 | – | 44
